Reference: patent publication US12064513B2, “Cationic lipid exhibiting improved intracellular dynamics” (NOF CORPORATION, priority 2018, dated 2024)

Assay: Measurement of Liposomal pKa with TNS, empty LNP (Experimental Example 11)
Assay type: physicochemical
Details: cationic lipid:DOPC:Chol:DMG-PEG2k=52.5:7.5:40:1.5
Method: 20 mM Citrate buffer, sodium phosphate buffer and tris HCl buffer each containing NaCl at a final concentration of 150 mM and adjusted to various pHs within the range of pH 3.0-10.0 were prepared. LNP prepared in [Experimental Example 3], 1, was diluted with PBS to a lipid concentration of 0.5 mM. TNS (manufactured by Sigma) was diluted with ultrapure water to 0.6 mM. TNS solution (2 μL), various LNP solutions (12 μL), and buffers adjusted to various pHs (186 μL) were added to a black 96 well plate. The plate was protected from light and shaken at 400 rpm for 10 min. The fluorescence intensity (excitation: 321 nm/emission: 447 nm) was measured using a plate reader (manufactured by TECAN). The relative fluorescence intensity was calculated as a percentage, with the maximum value of the fluorescence intensity in each LNP being 100% and the minimum value being 0%. Furthermore, the pH at which the relative fluorescence intensity was 50% was taken as Liposomal pKa.
For the evaluation of Liposomal pKa, empty LNP not encapsulating nucleic acid was used. The empty LNP (cationic lipid:DOPC:Chol:DMG-PEG2k=52.5:7.5:40:1.5) was produced by performing particle preparation in the method described in [Experimental Example 10] without using a nucleic acid.
Liposomal pKa was calculated by the method described in [Experimental Example 3].

Structure (SMILES): CCCCCCCC/C=C\CCCCCCCC(=O)Oc1ccc(CC(=O)NCCC2CCN(CCSSCCN3CCC(CCNC(=O)Cc4ccc(OC(=O)CCCCCCC/C=C\CCCCCCCC)cc4)CC3)CC2)cc1 [O-Ph-amide-P4C2]
- Liposomal pKa: improved pKa
